Experimental data published in article PMC6539525, “Design, Synthesis, and Mechanism of Dihydroartemisinin–Coumarin Hybrids as Potential Anti-Neuroinflammatory Agents” (Molecules, 2019).
Like-named read-outs stand apart in the source and are kept apart here.

How the values were obtained:
HCT-116 cells = test: MTT cytotoxicity in HCT-116 cells; assay type: cell-based; conditions: Homo sapiens
Procedure: (§1) As the anti-neuroinflammatory agents for cancer patients, all newly synthesized compounds were evaluated in vitro for antitumor activity against human breast cancer cell line MDA-MB-231, colorectal cancer cells HT-29 and HCT-116, and lung cancer cell line A549 by using the standard MTT method, respectively. Doxorubicin (DOX) and DHA were used as the reference standard. Additionally, owing to the rapid proliferation, the tumor cells actually was always in hypoxia condition. Therefore, the in vitro cytotoxicity was evaluated in two different conditions (hypoxia and normoxia).
(§2) After recovery, the cells were cultured in 96-well plates for 24 h at 37 °C in a humidified atmosphere with 95% air and 5% CO2. After treated with different tested compounds, the hypoxia groups were placed in a sealed hypoxia incubator chamber (Stemcell Technologies, Inc., Vancouver, BC, Canada) filled with 5% CO2 and 95% N2 for 24 h, and then transferred to the incubator chamber filled with air for 72 h. On the contrary, the normoxia groups were cultured under air condition for 96h.
(§3) Cancer cells HT-29 (Human Colorectal Adenocarcinoma cell line), MDA-MB-231 (Human Breast Cancer cell line), HCT-116 (Human Colorectal Carcinoma cell line), and A549 (Human Lung Adenocarcinomic cell line) were from ATCC.
(§4) When the adherent cells reached 80% confluence, the culture medium was discarded. The cells were digested by trypsin and collected after centrifugation. The fresh culture medium was gently blown into it to form single-cell suspension. Cell suspension will be diluted to 1.5–3 × 10^4 cells/mL. Each hole of 96-well plates was added 100 μL cell suspension and incubated for 24 h (5% CO2; 37 °C). Then the holes were added different concentrations of tested compounds. The early screening concentration is set to 100 μM, 50 μM, 25 μM, 12.5 μM, and 6.25 μM. Three replicates were made for each concentration of the tested compounds. After the cells were grown for 96h, 20 μL MTT (5 mg/mL) was added to each well and incubated for 4 h. The medium was discarded and each well was added 100 μL DMSO to dissolve the formazan blue. Absorbance was measured at 570 nm with a microplate reader (Synergy-HT, BioTek Instruments, Winooski, VT, USA).
(§5) Hypoxia condition: The cells were treated with different concentration of tested compounds, placed in hypoxia chamber (Catalog Number 27310, Stemcell Technologies, Inc., Vancouver, BC, Canada), and incubated for 24 h ([…]; 37 °C). Then the cells were placed in normoxia condition (5% CO2; 37 °C) and incubated for 72 h.

[1] = test system: NO release of LPS-induced microglial N9 cells; test: Inhibition of NO release in LPS-induced N9 cells (Griess); assay type: cell-based, murine; conditions: Mus musculus, 1 μg/mL LPS for 48 h, NO level in medium
Procedure: (§6) The anti-neuroinflammatory activity of DCH was evaluated and then the representative compounds were selected for the further study. […] In addition, in order to exclude the death influence, MTT-IC20 of all the compounds were measured. […] The exact reason was still unclear, but we supposed that it might be related to the homeostasis of cells. The tumor cells actually were always in hypoxia condition, in which DCH could promote the cytotoxic activity against tumor cells. In brief, DCH could reduce the release of NO caused by LPS-induced microglial cells.
(§7) N9 cells, which were in the logarithmic phase, were incubated for 24 h by adherent culture. Subsequently, the medium was changed to new one without serum. The cells were treated with different concentration of tested compounds. After specific time in the LPS condition, the supernatants were collected and analyzed.
The nitrite levels in medium were determined by Griess reaction. The absorbance was measured at 540 nm using a microplate reader.

MDA-MB-231 cells = test: MTT cytotoxicity in MDA-MB-231 cells; assay type: cell-based; conditions: Homo sapiens
Procedure: as §1, §2, §3, §4, §5

HT-29 cells = test: MTT cytotoxicity in HT-29 cells; assay type: cell-based, Human; conditions: Homo sapiens, MTT
Procedure: as §1
After recovery, the cells were cultured in 96-well plates for 24 h at 37 °C in a humidified atmosphere with 95% air and 5% CO2. After treated with different tested compounds, the hypoxia groups were placed in a sealed hypoxia incubator chamber (Stemcell Technologies, Inc., Vancouver, BC, Canada) filled with 5% CO2 and 95% N2 for 24 h, and then transferred to the incubator chamber filled with air for 72 h. […]
as §3
as §4, with “After the cells were grown for 96h, 20 μL MTT (5 mg/mL) was added to each well and incubated for 4 h.” left out, “USA). […]” for “USA).”

[2] = MTT cytotoxicity in N9 cells; assay type: cell-based, murine; conditions: mouse, N9 microglial cells, cytotoxic activity
Procedure: as §6, §4, §7

A549 cells = test: MTT cytotoxicity in A549 cells; assay type: cell-based; conditions: Homo sapiens
Procedure: as §1, §2, §3, §4, §5

[3] = HCT-116, hypoxia 24 h then normoxia 72 h, read-out: IC50 HCT-116 Hypoxia
[4] = HCT-116, normoxia 96 h, read-out: IC50 HCT-116 Normoxia
[5] = MDA-MB-231, hypoxia 24 h then normoxia 72 h, read-out: IC50 MDA-MB-231 Hypoxia
[6] = MDA-MB-231, normoxia 96 h, read-out: IC50 MDA-MB-231 Normoxia
[7] = HT-29, hypoxia 24 h then normoxia 72 h, read-out: IC50 HT-29 Hypoxia
[8] = HT-29, normoxia 96 h, read-out: IC50 HT-29 Normoxia
[9] = A549, hypoxia 24 h then normoxia 72 h, read-out: IC50 A549 Hypoxia
[10] = A549, normoxia 96 h, read-out: IC50 A549 Normoxia

| Structure (SMILES) | IC50 (HCT-116 cells; [3]) [µM] | IC50 (HCT-116 cells; [4]) [µM] | IC50 [1] [µM] | IC50 (MDA-MB-231 cells; [5]) [µM] | IC50 (MDA-MB-231 cells; [6]) [µM] | IC50 (HT-29 cells; [7]) [µM] | IC50 (HT-29 cells; [8]) [µM] | melting point [°C] | IC20 [2] [µM] | IC50 (A549 cells; [9]) [µM] | IC50 (A549 cells; [10]) [µM] |
| --- | --- | --- | --- | --- | --- | --- | --- | --- | --- | --- | --- |
| C[C@H]1[C@@H](OCc2cn(Cc3cc4ccccc4oc3=O)nn2)O[C@@H]2O[C@@]3(C)CC[C@H]4[C@H](C)CC[C@@H]1[C@@]24OO3 [1a, 3-((4-((10S)-dihydroartemisininoxy)methyl-1H-1,2,3-triazol-1-yl)-methyl)-2H-1-chromen-2-one] | 49.8 | 48.9 | 1.46 | 30.5 | 65 | 14.3 | 18.4 | 73 to 75 | > 10 | 53.9 | 83.5 |
| C[C@H]1[C@@H](OCc2cn(Cc3cc4cc(Br)ccc4oc3=O)nn2)O[C@@H]2O[C@@]3(C)CC[C@H]4[C@H](C)CC[C@@H]1[C@@]24OO3 [1b, 6-bromo-3-((4-((10S)-dihydroartemisininoxy)methyl-1H-1,2,3-triazol-1-yl)-methyl)-2H-1-chromen-2-one] | > 100 | > 100 | > 10 | > 100 | > 100 | 13.1 | 21.4 | 78 to 80 | > 10 | > 100 | > 100 |
| C[C@H]1[C@@H](OCc2cn(Cc3cc4cc(Cl)ccc4oc3=O)nn2)O[C@@H]2O[C@@]3(C)CC[C@H]4[C@H](C)CC[C@@H]1[C@@]24OO3 [1c, 6-chloro-3-((4-((10S)-dihydroartemisininoxy)methyl-1H-1,2,3-triazol-1-yl)-methyl)-2H-1-chromen-2-one] | 40.4 | 60.3 | 5.33 | 32.3 | > 100 | 26.4 | 35.4 | 93 to 95 | > 10 | 48.7 | 73.5 |
| C[C@H]1[C@@H](OCc2cn(Cc3cc4cc(Cl)cc(Cl)c4oc3=O)nn2)O[C@@H]2O[C@@]3(C)CC[C@H]4[C@H](C)CC[C@@H]1[C@@]24OO3 [1d, 6,8-dichloro-3-((4-((10S)-dihydroartemisininoxy)methyl-1H-1,2,3-triazol-1-yl)-methyl)-2H-1-chromen-2-one] | 48.6 | 60 | 1.6 | 33.9 | 68.9 | 13.3 | 14.9 | 113 to 115 | > 10 | 45.4 | 53.3 |
| C[C@H]1[C@@H](OCc2cn(Cc3cc4cc(Br)cc(Br)c4oc3=O)nn2)O[C@@H]2O[C@@]3(C)CC[C@H]4[C@H](C)CC[C@@H]1[C@@]24OO3 [1e, 6,8-dibromo-3-((4-((10S)-dihydroartemisininoxy)methyl-1H-1,2,3-triazol-1-yl)-methyl)-2H-1-chromen-2-one] | > 100 | 54.5 | 0.48 | 45.5 | 77.9 | 26.9 | 15.3 | 103 to 105 | > 10 | 59.8 | > 100 |
| C[C@H]1[C@@H](OCCc2cn(Cc3cc4ccccc4oc3=O)nn2)O[C@@H]2O[C@@]3(C)CC[C@H]4[C@H](C)CC[C@@H]1[C@@]24OO3 [2a, 3-((4-(2-((10S)-dihydroartemisininoxy)ethyl)-1H-1,2,3-triazol-1-yl)-methyl)-2H-1-chromen-2-one] | > 100 | > 100 | 0.97 | > 100 | > 100 | 19.4 | > 100 | 143 to 145 | > 10 | > 100 | > 100 |
| Cc1ccc2oc(=O)cc(Cn3cc(CCO[C@H]4O[C@@H]5O[C@@]6(C)CC[C@H]7[C@H](C)CC[C@@H]([C@H]4C)[C@@]57OO6)nn3)c2c1 [4i, 6-methyl-4-((4-(2-((10S)-dihydroartemisininoxy)ethyl)-1H-1,2,3-triazol-1-yl)-methyl)-2H-1-chromen-2-one] | > 100 | > 100 | > 10 | > 100 | > 100 | 39 | > 100 |  | > 10 | > 100 | > 100 |
| C[C@H]1[C@@H](OCCn2cc(COc3cc(=O)oc4ccccc34)nn2)O[C@@H]2O[C@@]3(C)CC[C@H]4[C@H](C)CC[C@@H]1[C@@]24OO3 [5j] | > 100 | 77.2 | 1.59 | 69.4 | 100 | 12.2 | 30 |  | > 10 | > 100 | > 100 |
| C[C@H]1[C@@H](O)O[C@@H]2O[C@@]3(C)CC[C@H]4[C@H](C)CC[C@@H]1[C@@]24OO3 [DHA, Dihydroartemisinin] | 25.9 | 10.3 | 1.58 | 45.9 | > 100 | 11.7 | 51.1 |  | > 10 | > 100 | > 100 |
